Data as given in ChEMBL document CHEMBL3877302, “Design and Synthesis of a New Series of 4-Heteroarylamino-1'-azaspiro[oxazole-5,3'-bicyclo[2.2.2]octanes as α7 Nicotinic Receptor Agonists. 1. Development of Pharmacophore and Early Structure-Activity Relationship” (J Med Chem, 2016).
pEC50, pIC50, pKi: −log10 of the molar value. Calls of active or inactive are those of the source. The calls are words filed in the database; no cut-off is given here.

Columns and labels:
[1] = biological target: T1, Neuronal acetylcholine receptor subunit alpha-7 (Rattus norvegicus, UniProt Q05941); assay: Agonist activity at rat alpha7 nAChR expressed in HEK293 cells co-expressing human RIC3 measured for 2 mins by FLIPR assay; type: cell-based
[2] = biological target: T2, 5-hydroxytryptamine receptor 3A (Homo sapiens, UniProt P46098); assay: Antagonist activity at human 5-HT3A expressed in HEK293 cells assessed as reduction in acetylcholine-induced activity preincubated for 30 mins followed by addition of acetylcholine measured for 2 mins by Fluo-4AM dye based FLIPR assay; type: cell-based
T2 sequence (P46098 whole entry): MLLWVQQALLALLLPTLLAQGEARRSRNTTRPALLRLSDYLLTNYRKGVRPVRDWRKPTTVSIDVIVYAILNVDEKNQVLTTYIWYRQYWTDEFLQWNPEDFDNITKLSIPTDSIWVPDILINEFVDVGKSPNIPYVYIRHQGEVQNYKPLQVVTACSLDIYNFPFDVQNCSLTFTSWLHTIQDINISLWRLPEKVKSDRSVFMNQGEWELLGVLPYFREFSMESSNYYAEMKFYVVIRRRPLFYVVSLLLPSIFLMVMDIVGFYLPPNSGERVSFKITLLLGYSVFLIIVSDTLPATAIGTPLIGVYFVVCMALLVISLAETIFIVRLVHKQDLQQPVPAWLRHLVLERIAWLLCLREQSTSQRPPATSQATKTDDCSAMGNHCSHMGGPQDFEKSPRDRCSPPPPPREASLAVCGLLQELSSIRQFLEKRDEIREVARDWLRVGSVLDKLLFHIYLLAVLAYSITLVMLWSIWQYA

[3] = Selectivity ratio of IC50 for human 5-HT3A expressed in HEK293 cells to EC50 for rat alpha7 nAChR expressed in HEK293 cells co-expressing human RIC3; type: ADME, cell-based
[4] = biological target: T1, Neuronal acetylcholine receptor subunit alpha-7; assay: Partial agonist activity at rat alpha7 nAChR expressed in HEK293 cells co-expressing human RIC3 at holding potential of -90 mV by whole-cell voltage clamp technique; type: cell-based
[5] = Selectivity ratio of IC50 for human 5-HT3A expressed in HEK293 cells to EC50 for rat alpha1beta1deltaepsilon nAChR expressed in HEK293 cells; type: ADME, cell-based
[6] = Selectivity ratio of IC50 for human 5-HT3A expressed in HEK293 cells to EC50 for rat alpha3beta4 nAChR expressed in HEK293 cells; type: ADME, cell-based
[7] = Selectivity ratio of IC50 for human 5-HT3A expressed in HEK293 cells to EC50 for rat alpha4beta2 nAChR expressed in HEK293 cells; type: ADME, cell-based
[8] = Metabolic stability in human microsomes assessed as compound remaining measured after 10 mins; type: ADME, Microsome; settings: read-out: Stability
[9] = Metabolic stability in mouse microsomes assessed as compound remaining measured after 10 mins; type: ADME, Microsome; settings: read-out: Stability
[10] = Metabolic stability in rat microsomes assessed as compound remaining measured after 10 mins; type: ADME, Microsome; settings: read-out: Stability
[11] = biological target: T1, Neuronal acetylcholine receptor subunit alpha-7; assay: Displacement of [125I]Tyr54-alpha-bungarotoxin from rat alpha7 nAChR expressed in HEK293 cell membranes co-expressing human RIC3 measured after 2 hrs by gamma counting method
[12] = biological target: Nicotinic acetylcholine receptor alpha-1/beta-1/delta/epsilon (Rattus norvegicus, UniProt P09660+P25108+P25109+P25110); assay: Agonist activity at rat alpha1beta1deltaepsilon nAChR expressed in HEK293 cells for 2 mins by FLIPR assay; type: cell-based
[13] = biological target: Neuronal acetylcholine receptor; alpha3/beta4 (Rattus norvegicus, UniProt P04757+P12392); assay: Agonist activity at rat alpha3beta4 nAChR expressed in HEK293 cells for 2 mins by FLIPR assay; type: cell-based
[14] = biological target: Neuronal acetylcholine receptor; alpha4/beta2 (Rattus norvegicus, UniProt P09483+P12390); assay: Agonist activity at rat alpha4beta2 nAChR expressed in HEK293 cells for 2 mins by FLIPR assay; type: cell-based
[15] = Clearance in rat; type: ADME; settings: in vivo
[16] = Oral bioavailability in rat at 10 mg/kg; type: ADME, organism-based; settings: in vivo
[17] = Plasma concentration in Wistar rat at 10 mg/kg, sc measured after 30 mins by LC-MS/MS analysis; type: ADME, organism-based
[18] = Drug uptake in Wistar rat brain at 10 mg/kg, sc measured after 30 mins by LC-MS/MS analysis; type: ADME, organism-based; settings: read-out: Drug uptake
[19] = Ratio of drug level in Wistar rat brain to plasma at 10 mg/kg, sc; type: ADME, organism-based; settings: read-out: BPR
Mus musculus = assay: Cognitive enhancing effect in C57Bl/6 mouse at 3 and 10 mg/kg, sc administered 30 mins prior to training measured after 24 hrs by novel recognition assay; type: functional, organism-based
[20] = biological target: Voltage-gated inwardly rectifying potassium channel KCNH2 (Homo sapiens, UniProt Q12809); assay: Inhibition of human ERG by patch clamp assay
5-HT3A = biological target: T3, 5-HT3A (Homo sapiens, UniProt P46098); assay: Antagonist activity at 5-HT3A (unknown origin) at 10 uM
T3 sequence (P46098 whole entry): T2 sequence (P46098 whole entry)

T1 sequence (Q05941 whole entry): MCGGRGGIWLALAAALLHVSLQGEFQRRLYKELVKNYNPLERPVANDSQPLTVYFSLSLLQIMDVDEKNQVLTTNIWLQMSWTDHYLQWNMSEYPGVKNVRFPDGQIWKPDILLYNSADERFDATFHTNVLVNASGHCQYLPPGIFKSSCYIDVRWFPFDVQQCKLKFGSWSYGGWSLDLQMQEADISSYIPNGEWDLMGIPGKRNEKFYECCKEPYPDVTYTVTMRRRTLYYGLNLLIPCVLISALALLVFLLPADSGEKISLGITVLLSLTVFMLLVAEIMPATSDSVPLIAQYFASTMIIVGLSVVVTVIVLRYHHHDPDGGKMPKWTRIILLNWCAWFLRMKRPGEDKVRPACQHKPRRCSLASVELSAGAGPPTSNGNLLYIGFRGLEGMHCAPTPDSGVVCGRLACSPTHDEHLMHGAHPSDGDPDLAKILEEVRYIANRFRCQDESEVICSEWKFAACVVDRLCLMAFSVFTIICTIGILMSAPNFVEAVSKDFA
Nicotinic acetylcholine receptor alpha-1/beta-1/delta/epsilon, sequence (P25109 whole entry): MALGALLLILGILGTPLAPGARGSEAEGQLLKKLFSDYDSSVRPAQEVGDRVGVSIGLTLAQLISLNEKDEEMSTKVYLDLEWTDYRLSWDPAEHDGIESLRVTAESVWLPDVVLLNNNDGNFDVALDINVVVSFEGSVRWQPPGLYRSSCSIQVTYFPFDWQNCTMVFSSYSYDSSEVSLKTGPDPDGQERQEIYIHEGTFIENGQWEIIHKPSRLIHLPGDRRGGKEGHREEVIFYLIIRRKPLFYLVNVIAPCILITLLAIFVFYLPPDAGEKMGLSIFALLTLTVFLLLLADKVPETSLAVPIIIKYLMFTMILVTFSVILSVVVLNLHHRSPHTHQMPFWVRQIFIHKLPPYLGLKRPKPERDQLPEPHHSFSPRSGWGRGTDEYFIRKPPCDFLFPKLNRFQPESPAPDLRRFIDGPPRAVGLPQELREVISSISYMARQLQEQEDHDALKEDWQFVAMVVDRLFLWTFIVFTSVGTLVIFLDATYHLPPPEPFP
Nicotinic acetylcholine receptor alpha-1/beta-1/delta/epsilon, sequence (P25108 whole entry): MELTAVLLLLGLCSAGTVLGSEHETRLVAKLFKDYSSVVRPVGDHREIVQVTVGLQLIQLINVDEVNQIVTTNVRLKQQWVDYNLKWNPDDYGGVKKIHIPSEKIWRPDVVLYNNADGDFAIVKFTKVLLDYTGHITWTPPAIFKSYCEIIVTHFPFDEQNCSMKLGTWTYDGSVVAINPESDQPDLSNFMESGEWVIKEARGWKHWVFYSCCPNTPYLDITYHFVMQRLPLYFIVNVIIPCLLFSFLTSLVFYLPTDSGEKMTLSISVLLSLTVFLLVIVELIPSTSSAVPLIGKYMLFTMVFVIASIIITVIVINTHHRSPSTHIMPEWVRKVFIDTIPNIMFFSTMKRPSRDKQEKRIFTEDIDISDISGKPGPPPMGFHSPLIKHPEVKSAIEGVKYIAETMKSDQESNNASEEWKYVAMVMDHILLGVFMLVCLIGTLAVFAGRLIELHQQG
Nicotinic acetylcholine receptor alpha-1/beta-1/delta/epsilon, sequence (P25110 whole entry): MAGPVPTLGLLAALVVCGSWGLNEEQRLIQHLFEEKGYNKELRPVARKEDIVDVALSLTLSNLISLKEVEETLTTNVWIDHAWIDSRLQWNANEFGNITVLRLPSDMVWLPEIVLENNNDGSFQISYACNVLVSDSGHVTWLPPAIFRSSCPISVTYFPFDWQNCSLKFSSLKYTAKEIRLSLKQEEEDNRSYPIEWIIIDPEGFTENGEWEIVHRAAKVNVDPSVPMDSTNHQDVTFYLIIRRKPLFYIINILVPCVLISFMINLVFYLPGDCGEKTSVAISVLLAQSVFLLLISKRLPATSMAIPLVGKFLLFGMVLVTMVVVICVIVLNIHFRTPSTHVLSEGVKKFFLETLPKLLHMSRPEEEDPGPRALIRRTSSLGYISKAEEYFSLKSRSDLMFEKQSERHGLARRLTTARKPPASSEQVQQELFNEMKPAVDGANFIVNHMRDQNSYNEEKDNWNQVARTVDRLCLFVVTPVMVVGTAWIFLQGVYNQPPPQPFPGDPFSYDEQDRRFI
Nicotinic acetylcholine receptor alpha-1/beta-1/delta/epsilon, sequence (P09660 whole entry): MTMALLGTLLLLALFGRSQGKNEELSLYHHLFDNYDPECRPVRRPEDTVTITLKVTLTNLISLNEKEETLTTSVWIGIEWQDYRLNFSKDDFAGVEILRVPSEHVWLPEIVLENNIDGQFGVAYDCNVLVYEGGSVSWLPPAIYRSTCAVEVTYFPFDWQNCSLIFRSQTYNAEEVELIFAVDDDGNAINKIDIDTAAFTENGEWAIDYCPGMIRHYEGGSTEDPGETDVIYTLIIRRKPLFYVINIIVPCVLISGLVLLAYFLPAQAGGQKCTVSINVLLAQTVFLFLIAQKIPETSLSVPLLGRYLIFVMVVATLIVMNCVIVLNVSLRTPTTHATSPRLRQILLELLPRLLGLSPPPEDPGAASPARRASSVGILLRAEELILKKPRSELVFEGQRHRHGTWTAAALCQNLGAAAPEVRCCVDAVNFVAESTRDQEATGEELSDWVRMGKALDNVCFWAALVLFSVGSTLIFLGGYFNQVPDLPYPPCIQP
Voltage-gated inwardly rectifying potassium channel KCNH2, sequence (Q12809 whole entry): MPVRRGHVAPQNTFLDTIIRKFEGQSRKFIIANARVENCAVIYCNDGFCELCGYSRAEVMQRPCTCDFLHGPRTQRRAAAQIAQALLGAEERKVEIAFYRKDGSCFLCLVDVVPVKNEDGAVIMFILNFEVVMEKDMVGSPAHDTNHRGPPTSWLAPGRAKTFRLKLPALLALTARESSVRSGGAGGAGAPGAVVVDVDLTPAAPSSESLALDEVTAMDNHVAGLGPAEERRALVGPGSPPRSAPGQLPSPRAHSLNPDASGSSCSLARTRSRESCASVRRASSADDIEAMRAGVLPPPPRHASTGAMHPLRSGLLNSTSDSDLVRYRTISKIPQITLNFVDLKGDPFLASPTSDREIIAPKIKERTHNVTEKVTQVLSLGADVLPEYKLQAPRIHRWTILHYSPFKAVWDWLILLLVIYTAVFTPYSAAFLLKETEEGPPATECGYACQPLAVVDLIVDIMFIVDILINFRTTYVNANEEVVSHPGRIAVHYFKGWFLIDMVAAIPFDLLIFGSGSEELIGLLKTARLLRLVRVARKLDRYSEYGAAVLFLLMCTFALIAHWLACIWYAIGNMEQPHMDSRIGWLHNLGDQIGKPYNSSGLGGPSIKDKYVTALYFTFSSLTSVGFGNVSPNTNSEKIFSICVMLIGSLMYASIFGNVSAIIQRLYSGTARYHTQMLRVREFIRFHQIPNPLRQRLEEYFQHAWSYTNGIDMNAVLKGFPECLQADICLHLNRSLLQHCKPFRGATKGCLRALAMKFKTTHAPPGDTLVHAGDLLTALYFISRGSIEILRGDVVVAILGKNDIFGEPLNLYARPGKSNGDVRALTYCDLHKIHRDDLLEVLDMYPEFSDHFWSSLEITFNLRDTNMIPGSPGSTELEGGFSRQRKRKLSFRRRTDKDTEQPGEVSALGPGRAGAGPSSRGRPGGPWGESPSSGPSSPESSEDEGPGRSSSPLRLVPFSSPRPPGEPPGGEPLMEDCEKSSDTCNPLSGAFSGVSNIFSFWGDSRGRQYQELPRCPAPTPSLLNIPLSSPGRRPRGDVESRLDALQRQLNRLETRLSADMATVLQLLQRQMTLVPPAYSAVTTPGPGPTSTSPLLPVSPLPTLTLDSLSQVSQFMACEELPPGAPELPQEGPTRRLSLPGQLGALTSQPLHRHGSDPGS
Neuronal acetylcholine receptor; alpha4/beta2, sequence (P09483 whole entry): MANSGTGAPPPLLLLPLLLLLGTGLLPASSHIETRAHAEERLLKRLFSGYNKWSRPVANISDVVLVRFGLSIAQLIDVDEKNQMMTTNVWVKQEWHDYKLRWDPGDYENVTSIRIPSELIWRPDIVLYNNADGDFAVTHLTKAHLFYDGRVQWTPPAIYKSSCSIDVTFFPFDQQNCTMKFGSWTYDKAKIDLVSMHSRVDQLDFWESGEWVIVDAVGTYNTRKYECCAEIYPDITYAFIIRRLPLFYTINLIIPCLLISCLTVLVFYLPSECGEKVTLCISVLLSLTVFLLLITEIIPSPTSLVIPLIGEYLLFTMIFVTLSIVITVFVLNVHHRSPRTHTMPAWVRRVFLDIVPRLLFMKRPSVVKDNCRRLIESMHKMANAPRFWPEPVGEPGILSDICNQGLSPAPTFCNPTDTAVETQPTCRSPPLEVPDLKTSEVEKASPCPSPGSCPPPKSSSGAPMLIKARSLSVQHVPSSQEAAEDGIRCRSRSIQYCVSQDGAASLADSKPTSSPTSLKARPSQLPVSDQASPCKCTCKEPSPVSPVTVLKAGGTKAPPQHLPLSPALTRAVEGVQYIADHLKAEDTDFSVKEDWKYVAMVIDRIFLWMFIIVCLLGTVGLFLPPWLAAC
Neuronal acetylcholine receptor; alpha4/beta2, sequence (P12390 whole entry): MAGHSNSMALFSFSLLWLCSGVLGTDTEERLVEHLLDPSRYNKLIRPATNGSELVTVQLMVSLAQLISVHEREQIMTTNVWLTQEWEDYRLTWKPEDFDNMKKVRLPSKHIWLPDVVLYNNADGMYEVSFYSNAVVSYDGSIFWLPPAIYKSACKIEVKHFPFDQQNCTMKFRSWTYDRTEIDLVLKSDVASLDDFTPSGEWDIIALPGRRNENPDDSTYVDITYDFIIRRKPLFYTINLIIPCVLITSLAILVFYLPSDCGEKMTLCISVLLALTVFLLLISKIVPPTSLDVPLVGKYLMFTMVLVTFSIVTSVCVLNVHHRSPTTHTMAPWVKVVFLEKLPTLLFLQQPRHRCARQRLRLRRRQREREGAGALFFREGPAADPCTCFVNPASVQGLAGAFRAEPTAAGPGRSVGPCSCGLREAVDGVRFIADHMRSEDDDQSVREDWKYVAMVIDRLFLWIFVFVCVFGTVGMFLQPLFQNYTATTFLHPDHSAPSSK

Structure (SMILES) | pEC50 [1] | pIC50 [2] | Ratio IC50/EC50 [3] | further results
c1ccc(-c2csc(NC3=NCC4(CN5CCC4CC5)O3)n2)cc1 (racemic) | 6.35 | 7.96 | 0.02 | –
COc1ccc2nc(NC3=NC[C@]4(CN5CCC4CC5)O3)sc2c1 | 5.72 | < 4.01 | 85 | –
CCOc1ccc2nc(NC3=NCC4(CN5CCC4CC5)O3)sc2c1 (configuration not stated) | 6.49 | 4.85 | 42 | –
c1nc2cc(NC3=NCC4(CN5CCC4CC5)O3)ccc2s1 (racemic) | 5.51 | 4.39 | 13 | –
COc1cccc2sc(NC3=NCC4(CN5CCC4CC5)O3)nc12 (configuration not stated) | 6.08 | 7.89 | 0.02 | –
COc1ccc2nc(NC3=NC[C@@]4(CN5CCC4CC5)O3)sc2c1 | 6.85 | 5.04 | 66 | pEC50 [4]: 6.40; Ratio IC50/EC50 [5]: > 700; Ratio IC50/EC50 [6]: > 700; Ratio IC50/EC50 [7]: > 700; remaining at 10 min [8]: > 60%; remaining at 10 min [9]: > 60%; remaining at 10 min [10]: > 60%; pKi [11]: 7.29 to 7.42; pEC50 [12]: < 4.00; pEC50 [13]: < 4.00; pEC50 [14]: < 4.00; clearance [15]: 320 mL/min/kg; bioavailability [16]: 24%; concentration at 0.5 h [17]: 760 nM; concentration at 0.5 h [18]: 5.3 µM; Kp [19]: 7; Activity (Mus musculus): Active; pIC50 [20]: 5.89
COc1ccc2nc(NC3=NCCC4(CN5CCC4CC5)O3)sc2c1 (configuration not stated) | 5.43 | 4.19 | 17 | –
c1csc(NC2=NCC3(CN4CCC3CC4)O2)n1 (racemic) | 6.70 | 7.60 | 0.1 | pEC50 [4]: 5.89
Oc1ccc2nc(NC3=NCC4(CN5CCC4CC5)O3)sc2c1 (configuration not stated) | 6.01 | 4.96 | 11 | –
c1ccc(-c2ccnc(NC3=NC[C@@]4(CN5CCC4CC5)O3)c2)cc1 | – | 7.07 | 9 to 9.6 | –
c1ccc2c(NC3=NC[C@@]4(CN5CCC4CC5)O3)nccc2c1 | 6.68 | – | – | –
c1cncc(/N=C2\NCC3(CN4CCC3CC4)O2)c1 (racemic) | 4.68 | 5.64 | 0.1 | –
c1ccc2sc(NC3=NCC4(CN5CCC4C5)O3)nc2c1 (racemic) | 6.59 | 7.46 | 0.06 | –
O=C1NC[C@@]2(CN3CCC2CC3)O1 | – | – | – | inhibition at 10 µM (5-HT3A): 2.5%
COc1ccc2nc(NC3=NCC4(CN5CCC4CC5)O3)sc2c1 (configuration not stated) | 6.92 | 4.72 | 153 | pEC50 [4]: 6.22
COc1ccc2sc(NC3=NCC4(CN5CCC4CC5)O3)nc2c1 (configuration not stated) | 5.96 | 7.72 | 0.02 | –

Structure (SMILES) | pEC50 [1] | pIC50 [2] | Ratio IC50/EC50 [3] | further results
c1ccc2sc(NC3=NC[C@@]4(CN5CC[C@@H]4C5)O3)nc2c1 | 7.66 | 6.32 | 22 | pEC50 [4]: 6.55
c1ccc(NC2=NCC3(CN4CCC3CC4)O2)cc1 (racemic) | 5.27 | 6.64 | 0.04 | –
COc1ccc2nc(/N=C3/OC4(CN5CCC4CC5)CN3C)sc2c1 (configuration not stated) | < 4.00 | < 4.00 | – | –
c1ccc(-c2ccc(NC3=NC[C@@]4(CN5CCC4CC5)O3)nc2)cc1 | 6.12 | 4.66 | 30 | –
COc1cc2nc(NC3=NCC4(CN5CCC4CC5)O3)sc2cc1OC (configuration not stated) | 4.96 | 4.57 | 3 | –
c1ccc2sc(NC3=NCC4(CN5CCC[C@@H]4C5)O3)nc2c1 (mixture of isomers) | 6.54 | 6.02 | 3 | –
Cc1ccc2nc(NC3=NCC4(CN5CCC4CC5)O3)sc2c1 (configuration not stated) | 6.92 | 5.42 | 32 | –
c1ccc2sc(NC3=NCC4(CN5CCCC4C5)O3)nc2c1 (racemic) | 6.15 | 8.15 | < 0.01 | –
c1cc(NC2=NCC3(CN4CCC3CC4)O2)ccn1 (racemic) | 4.96 | 4.24 | 5 | –
c1ccc2sc(NC3=NCC4(CN5CCC4CC5)O3)nc2c1 (racemic) | 7.68 to 7.70 | 7.44 to 7.68 | 1 to 1.8 | pEC50 [4]: 6.30
c1ccc2sc(NC3=NC[C@]4(CN5CCC4CC5)O3)nc2c1 | 5.89 | 5.14 | 6 | –
c1ccc2nc(NC3=NC[C@@]4(CN5CCC4CC5)O3)ccc2c1 | 7.59 | 8.10 | 0.3 | –
c1ccc2sc(NC3=NC[C@@]4(CN5CCC4CC5)O3)nc2c1 | 7.68 | 7.68 | 1 | –
c1ccc(-c2cnc(NC3=NCC4(CN5CCC4CC5)O3)s2)cc1 (racemic) | 6.40 | 4.70 | 51 to 750 | –
COc1ccc2nc(NC3=NC4(CO3)CN3CCC4CC3)sc2c1 (configuration not stated) | 5.11 | 4.33 | 6 | –
Clc1ccc2nc(NC3=NCC4(CN5CCC4CC5)O3)sc2c1 (configuration not stated) | 6.82 | 5.09 | 53 | –
